Reference: US9475789B2, “Use of polyenylpyrrole derivatives for treating inflammation” (WELLHEAD BIOLOGICAL TECHNOLOGY CORP., priority 2014, dated 2016)
Entries after “also recorded” stand apart in the source; their conditions may differ.

Tests used:
[1] = tested on: COX-2; assay: Western blot of COX-2 protein in LPS-activated RAW 264.7 macrophages; type: cell-based, murine
Experimental: In (A) and (C), cells (5×10^5/ml) were incubated with polyenylpyrrole derivatives or DMSO (vehicle) for 30 min followed by stimulating with LPS (1 μg/ml) for 24 h, then NO (A), IL-6 and TNF-α (C) concentration in culture medium were assayed by Griess reaction and ELISA, respectively. In (B), cells (5×10^5/ml) were pretreated with polyenylpyrrole derivatives or DMSO for 30 min followed by stimulating with LPS (1 μg/ml) for 24 h, then the protein expression of iNOS and COX-2 were assayed by Western blot.
(§1) Whole cell lysates were separated by SDS-PAGE and electrotransferred to a PVDF membrane. The membranes were incubated in blocking solution—5% nonfat milk in phosphate buffered saline with 0.1% Tween 20—at room temperature for 1 h. Each membrane was incubated with a specific primary antibody at room temperature for 2 h. After washing three times in PBS with 0.1% Tween 20, the membrane was incubated with an HRP-conjugated secondary antibody directed against the primary antibody. The membrane was developed by an enhanced chemiluminescence Western blot detection system.

[2] = tested on: IL-6; assay: IL-6 ELISA, RAW 264.7 macrophages; type: cell-based, murine
Experimental: (§2) The effects of tested samples on IL-1β, TNF-α and IL-6 production were measured by ELISA according to the manufacturer's instruction. In brief, 50 μl of biotinylated antibody reagent and 50 μl of supernatant were added to an anti-mouse IL-1β, TNF-α and IL-6 precoated stripwell plate, and incubated at room temperature for 2 h. After washing the plate three times with washing buffer, 100 μl of diluted streptavidin-HRP concentrate was added to each well and incubated at room temperature for 30 min. The washing process was repeated; then 100 μl of a premixed tetramethylbenzidine substrate solution was added to each well and developed at room temperature in the dark for 30 min. Following the addition of 100 μl of stop solution to each well to stop the reaction, the absorbance of the plate was measured by a microplate reader at 450 nm wavelength.

[3] = tested on: IL-6; assay: IL-6 ELISA, LPS-activated J774A.1 macrophages; type: cell-based, murine; details: J774A.1 cells, LPS 1 μg/ml 24 h
Experimental: (§3) (A) J774A.1 macrophages (4×10^5/ml), (B) peritoneal macrophages (4×10^5/ml), and (C) JAWSII dendritic cells (4×10^5/ml) were incubated with compound 1h or DMSO for 30 min followed by stimulating with LPS (1 μg/ml) for 24 h, then IL-6 and TNF-α concentration in culture medium were assayed by ELISA. The data are expressed as the mean±SD for three separate experiments. *, **, and *** indicate a significant difference at the level of p<0.05, p<0.01, p<0.001 respectively compared to LPS group.
as §2

[4] = tested on: IL-6; assay: IL-6 ELISA, LPS-activated peritoneal macrophages; type: cell-based, C57BL/6 mice; details: LPS 1 μg/ml 24 h
Experimental: as §3, §2

[5] = tested on: IL-6; assay: IL-6 ELISA, LPS-activated JAWSII dendritic cells; type: cell-based, murine; details: LPS 1 μg/ml 24 h
Experimental: as §3, §2

[6] = tested on: IL-6; assay: IL-6 ELISA, LPS-primed ATP-stimulated J774A.1 macrophages; type: cell-based, mouse; details: LPS-primed J774A.1; compound 30 min before ATP stimulation
Experimental: (A) J774A.1 macrophages (1×10^6/ml) and (B) peritoneal macrophages (1×10^5/ml) were incubated with compound 1h for 30 min followed by LPS (1 μg/ml) stimulating for 5.5 h, then the cells were stimulated with ATP (5 mM) for an additional 30 min. The IL-1β in the culture medium was measured by ELISA and the expression of active caspase-1 (p10) was measured by Western blot. In (C) and (D), J774A.1 macrophages (1×10^6/ml) were incubated with LPS (1 μg/ml) for 5.5 h, then cells were incubated with compound 1h for 30 min followed by stimulating with ATP (5 mM) for an additional 30 min. The IL-1β and IL-6 in the culture medium were measured by ELISA and the expression of active caspase-1 (p10) was measured by Western blot. In (E), J774A.1 macrophages (1×10^6/ml) were incubated with compound 1h for 30 min followed by LPS (1 μg/ml) stimulating for 6 h. The expression of NLRP3 and proIL-1β were measured by Western blot.
The effects of tested samples on IL-1β, TNF-α and IL-6 production were measured by ELISA according to the manufacturer's instruction. […] Following the addition of 100 μl of stop solution to each well to stop the reaction, the absorbance of the plate was measured by a microplate reader at 450 nm wavelength.

[7] = tested on: IKK-α and IκB-α; assay: Western blot of IKK-α and IκB-α, LPS-activated RAW 264.7 macrophages; type: cell-based, murine; details: LPS-activated RAW 264.7, LPS 20 min
Experimental: (§4) (A) RAW 264.7 macrophages (5×10^5/ml) or (B) J774A.1 macrophages (5×10^5/ml) were incubated with compound 1h or DMSO for 30 min followed by LPS (1 μg/ml) stimulating for 20 min, then the phosphorylation levels of IKK-α and IκB-α and total IκB-α protein level were analyzed by Western blot. (C) RAW 264.7 macrophages (5×10^5/ml) or (D) J774A.1 macrophages (5×10^5/ml) were incubated with compound 1h (10-40 μM) or DMSO for 30 min followed by LPS (1 μg/ml) stimulating for 20 min, then the nuclear translocation of NF-κB were analyzed by ELISA. (E) RAW-Blue™ cells (5×10^5/ml) were incubated with compound 1h (2.5-40 μM) or DMSO for 30 min followed by LPS (1 μg/ml) stimulating for 24 h, then the SEAP activity was measured by QUANTI-Blue™. […] In (C), (D), and (E), the data are expressed as the mean±SD for three separate experiments. *, **, and *** indicate a significant difference at the level of p<0.05, p<0.01, and p<0.001 respectively compared to LPS group.
as §1

[8] = tested on: NF-κB p65; assay: NF-κB p65 nuclear translocation ELISA, RAW 264.7 macrophages; type: cell-based, murine; details: compound 1h 10-40 μM, LPS 20 min
Experimental: as §4
Nuclear protein from RAW 264.7 and J774A.1 cells were extracted using a Nuclear Extract Kit (Active Motif) according to the manufacturer's instructions and nuclear NF-κB p65 activation quantified using an ELISA-based TransAM NF-κB kit (Active Motif, Tokyo, Japan) according to the manufacturer's protocol by reading the absorbance with a microplate absorbance reader (Bio-Rad Laboratories, Inc) at 450 nm with a reference wavelength of 655 nm.

[9] = tested on: NF-κB; assay: NF-κB reporter assay (SEAP), RAW-Blue cells; type: cell-based, murine; details: compound 1h 2.5-40 μM, LPS 24 h
Experimental: as §4
RAW-Blue™ cells, RAW 264.7 macrophages which stably express a secreted embryonic alkaline phosphatase (SEAP) gene inducible by NF-κB, were seeded in 60 mm dishes at a density of 5×10^5 cells/ml, and grown overnight in a 5% CO2 incubator at 37° C. […] Results of the SEAP activity were assessed by measuring the optical density at 655 nm using an ELISA reader.

O=c1cc(O)cc(/C=C/C=C/C=C/C=C/c2[nH]ccc2Cl)o1 [Compound 1h]
COX-2 expression [1]: did not affect
relative potency in decreasing IL-6 secretion ([2]; LPS-activated RAW 264.7): more potent than 1i and 1n
secretion of IL-6 ([2]; LPS-activated RAW 264.7, LPS 1 μg/ml 24 h): decreased production; also recorded: decreased the secretion of IL-6 by LPS-activated RAW 264.7 macrophages in a dose-dependent manner
background level of IL-6 ([2]; compound alone, no LPS, data not shown): did not alter
secretion of IL-6 [3]: reduced
secretion of IL-6 [4]: reduced
secretion of IL-6 [5]: also reduced
IL-6 secretion [6]: no significant effect
IκB-α degradation [7]: partially rescued
phosphorylation level of IKK-α [7]: inhibited
phosphorylation level of IκB-α [7]: inhibited
NF-κB nuclear translocation [8]: inhibited NF-κB nuclear translocation
NF-κB transcriptional activity [9]: reduced
